Values quoted from earlier work in article PMC2930141 (Biochimica et biophysica acta, 2010).

Columns and labels:
[1] = aqueous
[2] = biological target: human carbonic anhydrase I (hCA I) (Homo sapiens, UniProt P00915)
hCA I = conditions: bound to hCA I

Chain of human carbonic anhydrase I (hCA I) (P00915 whole entry): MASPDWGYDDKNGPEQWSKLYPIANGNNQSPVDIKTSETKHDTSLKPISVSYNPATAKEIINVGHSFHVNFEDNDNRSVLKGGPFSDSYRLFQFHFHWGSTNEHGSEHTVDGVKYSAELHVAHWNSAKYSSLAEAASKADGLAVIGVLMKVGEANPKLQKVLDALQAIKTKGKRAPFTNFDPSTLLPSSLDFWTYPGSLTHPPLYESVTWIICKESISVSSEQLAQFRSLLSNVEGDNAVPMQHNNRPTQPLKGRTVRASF

Row | Compound | pKa of sulfonamide group [1] | emission maximum of the enzyme-bound fluorophore [2] [nm] | pKa from pH dependent binding affinity (hCA II) | pKa from pH dependent binding affinity (hCA I)
1 | NS(=O)(=O)c1ccccc1 [benzenesulfonamide] | 9.79 |  |  | 
2 | CN(C)c1cccc2c(S(N)(=O)=O)cccc12 [dansylamide, 5-dimethylamino-1-naphthalene sulfonamide] |  | 458 | 6.4 | 6.3
